Source: patent US20150126467A1, “USE OF ALGINATE OLIGOMERS TO ENHANCE THE EFFECTS OF ANTIFUNGAL AGENTS” (AlgiIPharma AS, priority 2011, published 2015)
Values after ≈ are worked out from the molar mass of the structure shown. Where two headings read alike, the source gives them in different places.

Key:
[1] = system: C. parapsillosis ATCC 22019T; test: Standard MIC testing in RPMI medium (Example 3); assay type: cell-based, Candida parapsilosis; conditions: Lodderomyces parapsilosis, ATCC2019, 48 h, C. Parapsillosis ATCC 2019^T, read-out: Minimum Inhibitory Concentration (MIC)
Experimental: (§1) Following retrieval from −80° C. storage, fungal colonies were grown on blood agar with 5% sheep blood and were used to inoculate tryptone soya broth (TSB) for overnight growth. […] Fungal cultures at 0.5 McFarland standard were diluted ten-fold in RPMI medium and 5 μl added to the media containing wells of the microtiter plates. Plates were wrapped in parafilm and incubated at 34° C. for 48 hours. MIC values were determined as the lowest concentration at which there was no visible growth.

[2] = system: C. krusei 141/03 (candidosis); test: Standard MIC testing in RPMI medium (Example 3); assay type: cell-based, Candida krusei; conditions: Pichia kudriavzevii, 48 h, read-out: Minimum Inhibitory Concentration (MIC)
Experimental: as §1

[3] = system: C. krusei 249/03(2) (ulceration); test: Standard MIC testing in RPMI medium (Example 3); assay type: cell-based, Candida krusei; conditions: 48 h
Experimental: as §1

[4] = system: C. tropicalis 12 (vaginal); test: Standard MIC testing in RPMI medium (Example 3); assay type: cell-based; conditions: Candida tropicalis, 48 h, read-out: Minimum Inhibitory Concentration (MIC)
Experimental: as §1

[5] = system: C. tropicalis 519468 (urinary); test: Standard MIC testing in RPMI medium (Example 3); assay type: cell-based; conditions: Candida tropicalis, 48 h, read-out: Minimum Inhibitory Concentration (MIC)
Experimental: (§2) The Minimum Inhibitory Concentration assay used in this Example was based on Jorgensen et al. (Manual of Clinical Microbiology, 7th ed. Washington, D.C: American Society for Microbiology, 1999; 1526-43). Following retrieval from −80° C. storage, fungal colonies were grown on blood agar with 5% sheep blood and were used to inoculate tryptone soya broth (TSB) for overnight growth. […] Fungal cultures at 0.5 McFarland standard were diluted ten-fold in RPMI medium and 5 μl added to the media containing wells of the microtiter plates. Plates were wrapped in parafilm and incubated at 34° C. for 48 hours. MIC values were determined as the lowest concentration at which there was no visible growth.

[6] = system: C. tropicalis 250/03 (candidosis); test: Standard MIC testing in RPMI medium (Example 3); assay type: cell-based; conditions: Candida tropicalis, 48 h, read-out: Minimum Inhibitory Concentration (MIC)
Experimental: as §2

[7] = system: various Candida species and strains; test: Robotic MIC assay, summary over all strains (Example 2); assay type: cell-based; conditions: all species and strains tested
Experimental: The robotic assay described in Example 1 was employed in this Example. Strains were grown in Mueller-Hinton broth (LAB114 from Lab M Limited) and MIC values (μg ml-1) were determined for each antifungal after incubation for 48 h in the presence of 0, 2, 6 and 10% OligoG CF-5/20 G-fragments. […] OligoG CF-5/20 G-fragments were provided by AlgiPharma AS, Norway.
Candida strains used were as follows: • C. albicans CCUG 39343 (strain from culture collection) • C. parapsillosis ATCC 22019T (strain from culture collection) • C. krusei 141/03 (candidosis) • C. krusei 249/03(2) (ulceration) • C. lusitaniae 994/01(2) (candidosis) • C. tropicalis 12 (vaginal) • C. tropicalis 75 (vaginal) • C. tropicalis 519468 (urinary) • C. tropicalis 544123 (urinary) • C. tropicalis 250/03 (candidosis) • C. tropicalis AG1 (oral) • C. tropicalis T2.2 (oral)

## OC(Cn1cncn1)(Cn1cncn1)c1ccc(F)cc1F [Fluconazole, fluconazole]
[1]; 0% OligoG
  MIC: 2 µg/mL (≈ 6.53 µM)
[1]; 2% OligoG
  MIC: 2 µg/mL (≈ 6.53 µM)
[1]; 6% OligoG
  MIC: 2 µg/mL (≈ 6.53 µM)
[1]; 10% OligoG
  MIC: 1 µg/mL (≈ 3.27 µM)
[2]; 0% OligoG
  MIC: 128 µg/mL (≈ 418 µM)
[2]; 2% OligoG
  MIC: 64 µg/mL (≈ 209 µM)
[2]; 6% OligoG
  MIC: 64 µg/mL (≈ 209 µM)
[2]; 10% OligoG
  MIC: 32 µg/mL (≈ 104 µM)
[3]; 0% OligoG
  Minimum Inhibitory Concentration (MIC): 4 µg/mL
[3]; 6% OligoG
  Minimum Inhibitory Concentration (MIC): 4 µg/mL
[3]; 10% OligoG
  Minimum Inhibitory Concentration (MIC): 4 µg/mL
[3]; Pichia kudriavzevii, 2% OligoG, read-out: Minimum Inhibitory Concentration (MIC)
  MIC: 4 µg/mL (≈ 13.1 µM)
[4]; 0% OligoG
  MIC: 128 µg/mL (≈ 418 µM)
[4]; 2% OligoG
  MIC: 128 µg/mL (≈ 418 µM)
[4]; 6% OligoG
  MIC: 4 µg/mL (≈ 13.1 µM)
[4]; 10% OligoG
  MIC: 1 µg/mL (≈ 3.27 µM)
[5]; 6% OligoG
  MIC: 2 µg/mL (≈ 6.53 µM)
[5]; 10% OligoG
  MIC: 1 µg/mL (≈ 3.27 µM)
[6]; 0% OligoG
  MIC: 4 µg/mL (≈ 13.1 µM)
[6]; 2% OligoG
  MIC: 4 µg/mL (≈ 13.1 µM)
[6]; 6% OligoG
  MIC: 4 µg/mL (≈ 13.1 µM)
[6]; 10% OligoG
  MIC: 2 µg/mL (≈ 6.53 µM)

## C[C@@H]1[C@H](O)[C@@H](C)/C=C/C=C/CC/C=C/C=C/C=C/C=C/C(O[C@H]2O[C@H](C)[C@@H](O)[C@H](N)[C@@H]2O)CC2O[C@](O)(CC(O)C(O)CCC(O)CC(O)CC(O)CC(=O)O[C@H]1C)CC(O)C2C(=O)O (some centres unmarked) [Nystatin, nystatin]
[7]
  effect of addition of OligoG CF-5/20 on MIC values: reduced
